Data taken from patent publication US8044076B2, “Phenyl derivatives and their use as immunomodulators” (Actelion Pharmaceuticals Ltd., priority 2006, dated 2011).

Biological target: human S1P1 receptor (Homo sapiens, UniProt P21453)
Assay: GTPγS assay to determine EC50 values
Format: biochemical
Conditions: 35S-GTPγS binding, membrane preparations of CHO cells expressing recombinant human S1P1 receptor
Procedure: GTPγS binding assays are performed in 96 well microtiter plates (Nunc, 442587) in a final volume of 200 μl, using membrane preparations of CHO cells expressing recombinant human S1P1 receptor. Assay conditions are 20 mM Hepes (Fluka, 54461), 100 mM NaCl (Fluka, 71378), 5 mM MgCl2 (Fluka, 63064), 0.1% BSA (Calbiochem, 126609), 1 μM GDP (Sigma, G-7127), 2.5% DMSO (Fluka, 41644), 50 pM ^35S-GTPγS (Amersham Biosciences, SJ1320). The pH is 7.4. Test compounds are dissolved and diluted in 100% DMSO and pre-incubated at room temperature for 30 min in 150 μl of the above assay buffer, in the absence of ^35S-GTPγS. After addition of 50 μl of ^35S-GTPγS, the assay is incubated for 1 h at rt. The assay is terminated by transfer of the reaction mixture to a Multiscreen plate (Millipore, MAHFC1H60) using a cell harvester from Packard Biosciences, and the plates are washed with ice-cold 10 mM Na2HPO4/NaH2PO4 (70%/30%), dried, sealed at the bottom and, after addition of 25 μl MicroScint20 (Packard Biosciences, order#6013621), sealed on the top. Membrane-bound ^35S-GTPγS is measured with a TopCount from Packard Biosciences.
EC50 is the concentration of agonist inducing 50% of the maximal specific ^35S-GTPγS binding. Specific binding is determined by subtracting non-specific binding from maximal binding. […]
The EC50 values were determined according to the method described above: […]

Sequence of human S1P1 receptor (P21453 whole entry): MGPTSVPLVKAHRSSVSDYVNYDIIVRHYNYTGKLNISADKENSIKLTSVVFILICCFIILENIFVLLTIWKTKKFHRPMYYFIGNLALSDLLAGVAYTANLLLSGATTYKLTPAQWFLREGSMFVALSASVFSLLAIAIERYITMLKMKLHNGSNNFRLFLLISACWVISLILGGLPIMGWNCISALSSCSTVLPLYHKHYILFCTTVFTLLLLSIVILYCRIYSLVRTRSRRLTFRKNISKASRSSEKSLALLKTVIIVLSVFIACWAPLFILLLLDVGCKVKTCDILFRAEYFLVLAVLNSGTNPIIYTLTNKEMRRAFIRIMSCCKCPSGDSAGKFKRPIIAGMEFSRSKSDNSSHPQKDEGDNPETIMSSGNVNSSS

| EC50 [pM] | SMILES |
| --- | --- |
| 100 | Cc1cc(-c2nc(-c3cc(C)c(OCC(O)CNC(=O)CO)c(C)c3)no2)ccc1OC(C)C (centres unmarked) [Example 6] |
| 800 | Cc1cc(-c2nc(-c3cc(C)c(OCC(O)CNC(=O)CO)c(C)c3)no2)ccc1CC(C)C (centres unmarked) [Example 20] |
